In one assay the test system is filaggrin. In words: Filaggrin expression by indirect immunofluorescence on skin biopsies. It counts as cell-based, human. Conditions: positive control, concentration not given. Here is the method: Filaggrin is a protein involved in the cohesion and maintenance of the hydration of the upper layer of the epidermis, which is essential for maintaining the homeostasis of the skin barrier.
Filaggrin expression was assessed by indirect immunofluorescence on skin biopsies, pre-treated by topical application of the solubilised extract of depleted sandalwood from Example 1, diluted in 0.1% octyldodecanol (volume/volume percentages, twice daily), for 48 hours. In parallel, biopsies were treated with a sandalwood essential oil of Example 3 from the same geographical site and tested under the same conditions. Control biopsies incubated in parallel under the same conditions were given the placebo (octyldodecanol). After incubation, the biopsies were fixed and embedded in paraffin for histological sections. Detection of filaggrin was performed by incubation with anti-filaggrin antibody (Santa Cruz). After one and a half hours of incubation followed by rinses, the sections were incubated in the presence of the anti-mouse secondary antibody coupled to a fluorophore (Alexa Fluor® 488, Invitrogen). The sections were then examined under an Epi-fluorescence microscope (Zeiss Axiovert 200M microscope). Filaggrin expression was then observed and quantified by image analysis (Volocity® image analysis software, Improvision).

Assay [1] deals with olfactory receptor OR2AT4. Briefly: OR2AT4 expression by indirect immunofluorescence on human skin biopsies. It counts as cell-based. Here is the method: OR2AT4 expression was assessed by indirect immunofluorescence on skin biopsies, pre-treated by topical application of the solubilised extract of depleted sandalwood of Example 1 at 0.1%, 0.5% and 1% (volume/volume percentages), for 48 hours (twice daily). For this purpose, the solubilised extract of depleted sandalwood from Example 1 was diluted in 0.1%, 0.5% and 1% (volume/volume percentages) octyldodecanol. Other biopsies were given similar dilutions of sandalwood essential oil from Example 3 or a synthetic analogue Sandalore. Control biopsies incubated in parallel under the same conditions received placebo (octyldodecanol). After incubation, the biopsies were fixed and embedded in paraffin for histological sections. Detection of the OR2AT4 receptor was performed by incubation with anti-OR2AT4 antibody (Novus). After one and a half hours of incubation followed by rinses, the sections are incubated in the presence of the anti-rabbit secondary antibody coupled to a fluorophore (Alexa Fluor® 488, Invitrogen). The sections were then examined under an Epi-fluorescence microscope (Zeiss Axiovert 200M microscope). OR2AT4 expression was then observed and quantified by image analysis (Volocity® image analysis software, Improvision).

Regarding `O=C(O[C@@H]1Cc2c(O)cc(O)cc2O[C@@H]1c1cc(O)c(O)c(O)c1)c1cc(O)c(O)c(O)c1` [EGCG, epigallocatechin gallate], the increase in filaggrin result in the assay on filaggrin was “+27%”.

Regarding `CC1=CCC(CCC(C)C(C)O)C1(C)C` (centres unmarked) [Sandalore], the OR2AT4 expression increase in assay [1] (1% (v/v) in octyldodecanol, topical, twice daily, 48 hours, vs placebo) worked out at 28%; in assay [1] (3% topical application) it was 72%; in assay [1] (5% topical application) it was 71%. In addition, in assay [1] (application of less than 1%), the “effect on OR2AT4 expression” value is given as “does not seem to have any effect”.

For the origin of these results see patent publication US20230165785A1, “METHOD FOR OBTAINING AN EXTRACT OF SANDALWOOD, COMPOSITIONS COMPRISING SAME AND COSMETIC USES THEREOF” (ISP INVESTMENTS LLC, priority 2020, published 2023).
